Test results from patent US20190054054A1, “Methods reducing or preventing oxidation of high density lipoprotein (HDL)” (Amarin Pharmaceuticals Ireland Limited, priority 2017, published 2019).

System: rat renal glomerular endothelial cells
Assay: NO and ONOO^− release ex vivo from rat glomerular endothelial cells exposed to oxLDL and high glucose (Example 13)
Assay type: cell-based
Conditions: oxLDL 11 mg/dL and glucose 300 mg/dL, treatment 1 hr at 10.0 μM
Description: Healthy male Wistar Kyoto (WKY) rats, aged 7-9 weeks and weighing 250±20 g, were obtained from inbred colonies (National Institutes of Health, Bethesda, Md.). Animals were housed in a controlled environment that provided food and water ad libitum prior to the study. […] Animals were sacrificed and tissue samples obtained immediately for experimentation. All procedures were conducted in accordance with standard Institutional Animal Care and Use Committee guidelines and conformed to the Guide for the Care and Use of Laboratory Animals published by the US National Institutes of Health.
EPA and DHA were purchased from Sigma-Aldrich (St. Louis, Mo.) and solubilized in ethanol to 1.0 mM under nitrogen atmosphere. […] The calcium ionophore (Cal), A23187, was purchased from Sigma-Aldrich and prepared in aqueous buffer to 1.0 mM. All test compounds were further diluted in ethanol or aqueous buffer as needed.
Venous blood from healthy normolipidemic volunteers was collected into Na-EDTA (1 mg/mL blood) vacuum tubes after a 12-hour fast. […] The LDL fraction was dialyzed for 96 hours against PBS containing 0.3 mM EDTA and stored at 4° C. until experimental use.
LDL was oxidized according to the methods of Huber et al. 16 Briefly, the purified LDL fraction was dialyzed against Tris/NaCl Buffer (50 mM Tris in 0.15 M NaCl, pH 8.0) to remove EDTA. Additional buffer was added to adjust the protein concentration to 30 mg/mL. LDL oxidation was initiated with 20 μM CuSO4 and monitored spectrophotometrically (234 nm) over a period of 24 hours until complete. The oxLDL was then dialyzed at 4° C. with 4 L Tris buffer, filtered with a 0.22 µm filter, and stored under nitrogen at 4° C.
Immediately after sacrificing the rats, kidneys were removed, cut into […] sections and transferred to a separate organ chamber containing Dulbecco's phosphate buffered saline ([…]) and […] glucose at pH 7.4.
Concurrent measurements of NO and ONOO^− were performed on intact glomerular (cortical zone) endothelial cells using tandem electrochemical nanosensors, as previously described (FIG. 45).
The NO/ONOO^− nanosensor was positioned near the surface of the endothelial cells using a computer-controlled M3301 micromanipulator (x-y-z resolution of 0.2 μm) and microscope (both from World Precision Instruments, Berlin, Germany) fitted with a CD camera. Each analyte was measured from amperograms and standard calibration curves collected under maximum current. […] After establishing a background current, maximal NO and ONOO^− release was induced by injecting Cal into the organ chamber using a nanoinjector (World Precision Instruments, Berlin Germany). Changes in current (proportional to the molar concentrations of NO or ONOO^− released) were monitored continuously immediately following Cal stimulation.
Data are presented as mean+standard deviation (SD) for (N) separate samples or experiments. Differences between groups were analyzed using the unpaired, two-tailed Student's t-test (for comparisons between only two groups) or ANOVA followed by Student-Newman-Keuls multiple comparisons post hoc analysis (for comparisons between three or more groups). Only differences with probability values less than 0.05 were considered significant.

What does the source list for `CC/C=C\C/C=C\C/C=C\C/C=C\C/C=C\CCCC(=O)O` [EPA, cis-5,8,11,14,17-eicosapentaenoic acid]?
NO/ONOO^− Ratio: 1.08; increase in NO release (versus vehicle): 205%; increase of the NO/ONOO^− ratio (versus vehicle): more than 4 fold; reduction of ONOO^− release (versus vehicle): 27%
